Data from patent publication US20170037028A1 (BAYER PHARMA AKTIENGESELLSCHAFT, priority 2013, published 2017).

target: T1, GLUT1 (Homo sapiens, UniProt P11166); test: Indirect measurement of GLUT1 activity by quantification of intracellular ATP levels (glucose induced ATP increase); format: cell-based; set-up: endogenous in cells; host or cells: DLD1 or CHO-K1; conditions: DLD1 cells; 0.1 mM glucose, 1 μM Rotenone, 15 min; CellTiter-Glo ATP readout; IC50 values standardized to cytochalasin B IC50 values; read-out: IC50 regarding glucose induced ATP increase (GLUT1 inhibition)
T1 sequence (P11166 1-492): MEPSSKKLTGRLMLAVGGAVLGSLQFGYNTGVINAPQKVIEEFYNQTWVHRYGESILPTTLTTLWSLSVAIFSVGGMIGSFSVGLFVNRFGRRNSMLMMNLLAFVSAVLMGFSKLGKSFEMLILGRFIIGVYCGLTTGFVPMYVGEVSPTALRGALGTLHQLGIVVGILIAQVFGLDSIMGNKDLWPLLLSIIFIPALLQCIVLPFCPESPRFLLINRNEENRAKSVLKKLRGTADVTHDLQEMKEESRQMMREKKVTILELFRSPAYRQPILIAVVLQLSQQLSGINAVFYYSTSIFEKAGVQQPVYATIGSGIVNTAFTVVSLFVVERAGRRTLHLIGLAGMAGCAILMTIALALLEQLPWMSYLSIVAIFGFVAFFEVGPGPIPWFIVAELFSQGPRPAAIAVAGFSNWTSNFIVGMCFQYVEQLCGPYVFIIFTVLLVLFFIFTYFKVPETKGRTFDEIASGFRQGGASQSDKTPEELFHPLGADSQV
Description: Indirect Measurement of GLUT1 and GLUT2 Activity by Quantification of Intracellular ATP Levels
It is well known that a combination of small-molecule inhibitors of mitochondrial electron transport chain and glucose catabolism synergistically suppress ATP production and impair cellular viability (Ulanovskaya et al., 2008, 2011; Liu, et al. 2001). We therefore used DLD1 or CHO-K1 cells in combination with an oxidative phosphorylation inhibitor to identify GLUT1 and GLUT2 inhibitors. Cell lines were maintained in DMEM medium supplemented with 10% FCS and 1% Penicillin-Streptomycin solution and 2% Glutamax. The cells were treated with trypsin and seeded into 384 plates at a density of 4000 cells/well. The cells were then cultured overnight in glucose free media containing 1% FCS to reduce intracellular ATP levels. […] The CellTiter-Glo® Luminescent Cell Viability Assay from Promega was then used to measure ATP Levels.

SMILES	IC50 [µM]
COc1ccc2nc(C(N)=O)cc(C(=O)Nc3c(C(F)(F)F)nn(Cc4ccc(C#N)cc4)c3C)c2c1 [Example 245, N^4-[1-(4-cyanobenzyl)-5-methyl-3-(trifluoromethyl)-1H-pyrazol-4-yl]-6-methoxyquinoline-2,4-dicarboxamide]	0.0003

same assay, conditions: read-out: IC50 regarding glucose induced ATP increase (GLUT1 inhibition)

SMILES	IC50 [µM]
Cc1nn(Cc2cccnc2)c(C)c1NC(=O)c1cc(C(F)(F)F)nc2cc(F)c(F)cc12 [Example 196, N-[3,5-dimethyl-1-(pyridin-3-ylmethyl)-1H-pyrazol-4-yl]-6,7-difluoro-2-(trifluoromethyl)quinoline-4-carboxamide]	0.286
Cc1nn(Cc2ccc(F)cc2)c(C)c1NC(=O)c1cc(C(N)=O)nc2ccc(Br)cc12 [Example 119, 6-bromo-N^4-[1-(4-fluorobenzyl)-3,5-dimethyl-1H-pyrazol-4-yl]quinoline-2,4-dicarboxamide]	0.0013
COC(=O)c1ccc2nc(C(F)(F)F)cc(C(=O)Nc3c(C)nn(Cc4ccc(F)cc4)c3C)c2c1 [Example 149, methyl 4-{[1-(4-fluorobenzyl)-3,5-dimethyl-1H-pyrazol-4-yl]carbamoyl}-2-(trifluoromethyl)quinoline-6-carboxylate]	0.0117
Cc1c(NC(=O)c2cc(C(F)(F)F)nc3c(Cl)cc(Cl)cc23)c(C(F)(F)F)nn1Cc1ccc(C#N)cc1 [Example 167, 6,8-dichloro-N-[1-(4-cyanobenzyl)-5-methyl-3-(trifluoromethyl)-1H-pyrazol-4-yl]-2-(trifluoromethyl)quinoline-4-carboxamide]	0.0462
Cc1nn(Cc2cnn(C)c2C)c(C)c1NC(=O)c1cc(C(N)=O)nc2ccccc12 [Example 1567]	0.0844
Cc1c(NC(=O)c2cc(C(F)(F)F)nc3ccc(Br)cc23)c(C(F)(F)F)nn1Cc1ccc(C(N)=O)cn1 [Example 1076]	0.0227
COCCCS(=O)(=O)N1CCC(Cn2nc(C)c(NC(=O)c3cc(C(N)=O)nc4ccccc34)c2C)CC1 [Example 1513]	0.0608
Cc1nn(CC2CNC(=O)O2)c(C)c1NC(=O)c1cc(C(F)(F)F)nc2ccc(Br)cc12 (stereo not drawn) [Example 1206]	0.451
Cc1nn(Cc2ccc(F)cc2)c(C)c1NC(=O)c1cc(C2CC2)nc2c(Br)cccc12 [Example 16, 8-bromo-2-cyclopropyl-N-[1-(4-fluorobenzyl)-3,5-dimethyl-1H-pyrazol-4-yl]quinoline-4-carboxamide]	0.0121
Cc1ccccc1Cn1nc(C)c(NC(=O)c2cc(C(F)(F)F)nc3c(Cl)cc(Cl)cc23)c1C [Example 89, 6,8-dichloro-N-[3,5-dimethyl-1-(2-methylbenzyl)-1H-pyrazol-4-yl]-2-(trifluoromethyl)quinoline-4-carboxamide]	0.281
Cc1c(NC(=O)c2cc(C(F)(F)F)nc3ccc(Br)cc23)c(C(F)(F)F)nn1C(C)c1ccccc1 (racemic) [Example 1398]	0.0389
CCOC(=O)N=S(C)(=O)c1ccc(Cn2nc(C)c(NC(=O)c3cc(C(F)(F)F)nc4ccc(Br)cc34)c2C)cc1 (racemic) [Example 1433]	0.717
CCS(=O)(=O)N1CCC(Cn2nc(C(F)(F)F)c(NC(=O)c3cc(C(N)=O)nc4cc(F)ccc34)c2C)CC1 [Example 1545]	0.0431
Cc1nn(CC2CCN(S(=O)(=O)C3CCCC3)CC2)c(C)c1NC(=O)c1cc(C(N)=O)nc2ccccc12 [Example 1518]	0.0692
Cc1nn(Cc2ccc(F)cc2)c(C)c1NC(=O)c1cc(C(F)(F)F)nc2cc(F)c(F)cc12 [Example 39, 6,7-difluoro-N-[1-(4-fluorobenzyl)-3,5-dimethyl-1H-pyrazol-4-yl]-2-(trifluoromethyl)quinoline-4-carboxamide]	0.03
Cc1c(NC(=O)c2cc(C(N)=O)nc3ccc(Br)cc23)c(C(F)(F)F)nn1Cc1ccc(C#N)cc1 [Example 250]	0.0036
COc1cc(C(=O)Nc2c(C)nn(Cc3ccccc3C(F)(F)F)c2C)c2ccccc2n1 [Example 1305]	11.1
Cc1c(NC(=O)c2cc(C(N)=O)nc3cc(F)ccc23)c(C(F)(F)F)nn1Cc1ccc(C(C)(C)C#N)cc1 [Example 1596]	0.0672

SMILES	IC50 [µM]
CCS(=O)(=O)N1CCC(Cn2nc(C(F)(F)F)c(NC(=O)c3cc(C(N)=O)nc4ccccc34)c2C)CC1 [Example 1546]	0.0337
COc1ccccc1Cn1nc(C(F)(F)F)c(NC(=O)c2cc(C(N)=O)nc3ccccc23)c1C [Example 1492]	0.113
Cc1c(NC(=O)c2cc(C(N)=O)nc3cc(F)c(Cl)cc23)c(C(F)(F)F)nn1Cc1ccc(C#N)cc1F [Example 303, 6-chloro-N^4-[1-(4-cyano-2-fluorobenzyl)-5-methyl-3-(trifluoromethyl)-1H-pyrazol-4-yl]-7-fluoroquinoline-2,4-dicarboxamide]	0.0018
CCc1cc(Cn2nc(C)c(NC(=O)c3cc(C(N)=O)nc4cc(F)ccc34)c2C)on1 [Example 1532]	0.0161
Cc1nn(C(C)c2ccc(C#N)cc2)c(C)c1NC(=O)c1cc(C(N)=O)nc2c(F)cccc12 (racemic) [Example 331, (±)-N^4-{1-[1-(4-cyanophenyl)ethyl]-3,5-dimethyl-1H-pyrazol-4-yl}-8-fluoroquinoline-2,4-dicarboxamide]	0.0025
Cc1nn(Cc2ccc(CC(=O)NCCN3CCOCC3)cc2)c(C)c1NC(=O)c1cc(C(F)(F)F)nc2ccc(Br)cc12 [Example 1240]	1.5
CCc1noc(Cn2nc(C)c(NC(=O)c3cc(C(F)(F)F)nc4ccc(Br)cc34)c2C)n1 [Example 1570]	0.0482
COc1cc(C(=O)Nc2c(C)nn(Cc3ccc(C#N)cc3F)c2C)c2ccccc2n1 [Example 1352]	0.0351
Cc1nn(CCCc2ccc(C#N)cc2)c(C)c1NC(=O)c1cc(C(F)(F)F)nc2ccc(Br)cc12 [Example 348, 6-bromo-N-{1-[3-(4-cyanophenyl)propyl]-3,5-dimethyl-1H-pyrazol-4-yl}-2-(trifluoromethyl)quinoline-4-carboxamide]	0.0061
Cc1nn(CC2CCN(S(=O)(=O)c3cccnc3)CC2)c(C)c1NC(=O)c1cc(C(N)=O)nc2ccccc12 [Example 1514]	0.493
Cc1nn(Cc2ccc(C(=O)NC(CO)CO)cn2)c(C)c1NC(=O)c1cc(C(F)(F)F)nc2ccc(Br)cc12 [Example 1230]	1
Cc1nn(Cc2ccc(C#N)cc2)c(C)c1NC(=O)c1cc(C(N)=O)nc2cccc(F)c12 [Example 262, N^4-[1-(4-cyanobenzyl)-3,5-dimethyl-1H-pyrazol-4-yl]-5-fluoroquinoline-2,4-dicarboxamide]	0.0012
CC(=O)N1CCC(Cn2nc(C)c(NC(=O)c3cc(C(F)(F)F)nc4ccc(Br)cc34)c2C)CC1 [Example 1156]	0.149
Cc1c(NC(=O)c2cc(C(N)=O)nc3cc(F)c(Cl)cc23)c(C(F)(F)F)nn1Cc1ccc(C(F)(F)F)cc1 [Example 1589]	0.0139
Cc1c(NC(=O)c2cc(C(N)=O)nc3ccccc23)c(C(F)(F)F)nn1Cc1cc(C2CC2)on1 [Example 1549]	0.0136
CCc1nn(Cc2ccc(C#N)cc2)c(C)c1NC(=O)c1cc(C(N)=O)nc2ccccc12 [Example 325, N^4-[1-(4-cyanobenzyl)-3-ethyl-5-methyl-1H-pyrazol-4-yl]quinoline-2,4-dicarboxamide]	0.0039
COC(=O)c1coc(Cn2nc(C(F)(F)F)c(NC(=O)c3cc(C(N)=O)nc4ccccc34)c2C)n1 [Example 1680]	0.146
